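Each compound was tested at five concentrations against cells in 96-well plates for 48 hours. The concentration for 50% growth inhibition is given as GI50.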 The source made the active and inactive calls. No stated cut-off is given here; in the data, active = GI50 up to about 1.1 µM and inactive = higher. Where a SMILES comes first, the peptide text is derived from it. The star is where a group is joined. Cbz = O=C(OCc1ccccc1)*; Bn = c1ccc(C*)cc1
Legend:
Assay in all cases: DTP human tumour cell line panel, 48 h
[1] = tested on: OVCAR-4
[2] = tested on: HL-60
[3] = tested on: EKVX
[4] = tested on: SF-295
[5] = tested on: SK-MEL-28
[6] = tested on: NCI-H23
[7] = tested on: HOP-92
[8] = tested on: Malme-3M
[9] = tested on: CAKI-1
[10] = tested on: RXF 393
[11] = tested on: SK-MEL-5
[12] = tested on: SN12C
[13] = tested on: UACC-62
[14] = tested on: K562
[15] = tested on: HCC 2998
[16] = tested on: RPMI-8226
[17] = tested on: ACHN
[18] = tested on: NCI-H522
[19] = tested on: SK-MEL-2
[20] = tested on: TK-10

Measured: GI50

COC(=O)C(Cc1ccc(O)cc1)NC(=O)C(COCc1ccccc1)NC(=O)OCc1ccccc1 (stereo not given) (Cbz-Ser(Bn)-Tyr-OMe; configuration not given here)
inactive: [1] 19.4 µM | [2] > 100 µM | [3] 22.5 µM | [4] 16.5 µM | [5] 20.9 µM | [6] 20.1 µM | [7] 25.5 µM | [8] 21.3 µM | [9] 20.2 µM | [10] 18.7 µM | [11] 17 µM | [12] 18.4 µM | [13] 17 µM | [14] > 100 µM | [15] 4.06 µM | [16] 74.6 µM | [17] 17.4 µM | [18] 22.5 µM | [19] 23 µM | [20] 20 µM

— ChEMBL document CHEMBL1201862, “PubChem BioAssay data set” (2004)
